Target: T1, human vasopressin V1b receptor (Homo sapiens, UniProt P47901)
T1 construct: expressed in transfected cells; host or cells: CHO-K1 (cell line hV1b-3H2_CHO), membrane preparation
T1 sequence (P47901 1-424): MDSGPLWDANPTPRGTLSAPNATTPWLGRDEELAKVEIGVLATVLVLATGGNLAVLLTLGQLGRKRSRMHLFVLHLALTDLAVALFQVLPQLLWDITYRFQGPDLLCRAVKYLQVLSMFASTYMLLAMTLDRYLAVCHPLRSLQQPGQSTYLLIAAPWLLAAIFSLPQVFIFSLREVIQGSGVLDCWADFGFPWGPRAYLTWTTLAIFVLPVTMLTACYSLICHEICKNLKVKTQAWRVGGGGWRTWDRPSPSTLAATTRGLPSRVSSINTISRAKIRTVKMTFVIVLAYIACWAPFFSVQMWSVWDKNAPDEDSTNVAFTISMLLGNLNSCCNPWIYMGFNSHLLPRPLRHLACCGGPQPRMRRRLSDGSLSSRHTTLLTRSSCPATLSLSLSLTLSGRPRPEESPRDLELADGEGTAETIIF
Assay: Vasopressin V1b receptor binding assay
Conditions: membranes from CHO-K1 cells with stably expressed human V1b receptors; displacement of 1.5 nM 3H-AVP; read-out: V1b receptor affinity (affinity constant Ki)
In short: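 Ki values come from nonlinear regression of triplicate scintillation counts after filtration. Test compound (2% DMSO in the mixture) and radioligand were incubated 60 min at room temperature with human V1b membranes in pH 7.4 Tris buffer with 10 mM MgCl2 and 0.1% BSA. Nonspecific binding was set with 1 uM AVP.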

Row | Compound | Ki [nM]
1 | COc1ccc(S(=O)(=O)n2c(=O)n(C(C(=O)N3CCCC(N4CCNCC4)C3)c3ccccc3)c3cc(Cl)ccc32)cc1 (stereo not drawn) [Example 147, 5-Chloro-1-(4-methoxybenzenesulfonyl)-3-[2-oxo-1-phenyl-2-(3-piperazin-1-ylpiperidin-1-yl)ethyl]-1,3-dihydrobenzimidazol-2-one] | < 100
2 | COc1ccc(S(=O)(=O)n2c(=O)n(C(C(=O)N3CC(N4CCNCC4)C3)c3ccccc3)c3cc(Cl)ccc32)cc1 (stereo not drawn) [Example 148, 5-Chloro-1-(4-methoxybenzenesulfonyl)-3-[2-oxo-1-phenyl-2-(3-piperazin-1-ylazetidin-1-yl)ethyl]-1,3-dihydrobenzimidazol-2-one] | 100 to 500
3 | COc1ccc(S(=O)(=O)n2c(=O)n(C(C(=O)N3CC[C@H](N4CCNCC4)C3)c3ccccc3)c3cc(Cl)ccc32)cc1 (stereo partly drawn) [Example 149, 5-Chloro-1-(4-methoxybenzenesulfonyl)-3-[2-oxo-1-phenyl-2-((S)-3-piperazin-1-ylpyrrolidin-1-yl)ethyl]-1,3-dihydrobenzimidazol-2-one] | < 100
4 | COc1ccc(S(=O)(=O)n2c(=O)n(C(C(=O)N3CC[C@H](N4CCNCC4)C3)c3ccccc3)c3cc(C#N)ccc32)cc1 (stereo partly drawn) [Example 150, 1-(4-Methoxybenzenesulfonyl)-2-oxo-3-[2-oxo-1-phenyl-2-((S)-3-piperazin-1-ylpyrrolidin-1-yl)ethyl]-2,3-dihydro-1H-benzimidazole-5-carbonitrile] | < 100
5 | COc1ccc(S(=O)(=O)n2c(=O)n(C(C(=O)N3CC[C@@H](N4CCNCC4)C3)c3ccccc3)c3cc(C#N)ccc32)cc1 (stereo partly drawn) [Example 151, 1-(4-Methoxybenzenesulfonyl)-2-oxo-3-[2-oxo-1-phenyl-2-((R)-3-piperazin-1-ylpyrrolidin-1-yl)ethyl]-2,3-dihydro-1H-benzimidazole-5-carbonitrile] | < 100
6 | CCN1CCN([C@H]2CCN(C(=O)C(c3ccccc3)n3c(=O)n(S(=O)(=O)c4ccc(OC)cc4)c4ccc(Cl)cc43)C2)CC1 (stereo partly drawn) [Example 152, 5-Chloro-3-{2-[(S)-3-(4-ethylpiperazin-1-yl)pyrrolidin-1-yl]-2-oxo-1-phenylethyl}-1-(4-methoxybenzenesulfonyl)-1,3-dihydrobenzimidazol-2-one] | < 100
7 | COc1ccc(S(=O)(=O)n2c(=O)n(C(C(=O)N3CC[C@H](N4CCN(C)CC4)C3)c3ccccc3)c3cc(Cl)ccc32)cc1 (stereo partly drawn) [Example 153, 5-Chloro-1-(4-methoxybenzenesulfonyl)-3-{2-[(S)-3-(4-methylpiperazin-1-yl)pyrrolidin-1-yl]-2-oxo-1-phenylethyl}-1,3-dihydrobenzimidazol-2-one] | < 100
8 | CCCN1CCN(C2CN(C(=O)C(c3ccccc3)n3c(=O)n(S(=O)(=O)c4ccc(OC)cc4)c4ccc(Cl)cc43)C2)CC1 (stereo not drawn) [Example 154, 5-Chloro-1-(4-methoxybenzenesulfonyl)-3-{2-oxo-1-phenyl-2-[3-(4-propylpiperazin-1-yl)azetidin-1-yl]ethyl}-1,3-dihydrobenzimidazol-2-one] | 100 to 500
9 | CCCN1CCN(C2CCCN(C(=O)C(c3ccccc3)n3c(=O)n(S(=O)(=O)c4ccc(OC)cc4)c4ccc(Cl)cc43)C2)CC1 (stereo not drawn) [Example 155, 5-Chloro-1-(4-methoxybenzenesulfonyl)-3-{2-oxo-1-phenyl-2-[3-(4-propylpiperazin-1-yl)piperidin-1-yl]ethyl}-1,3-dihydrobenzimidazol-2-one] | < 100
10 | COc1ccc(S(=O)(=O)n2c(=O)n(C(C(=O)N3CCCC(N4CCN(C)CC4)C3)c3ccccc3)c3cc(Cl)ccc32)cc1 (stereo not drawn) [Example 156, 5-Chloro-1-(4-methoxybenzenesulfonyl)-3-{2-[3-(4-methylpiperazin-1-yl)piperidin-1-yl]-2-oxo-1-phenylethyl}-1,3-dihydrobenzimidazol-2-one] | < 100
11 | CCCN1CCN([C@@H]2CCN(C(=O)C(c3ccccc3)n3c(=O)n(S(=O)(=O)c4ccc(OC)cc4)c4ccc(Cl)cc43)C2)CC1 (stereo partly drawn) [Example 157, 5-Chloro-1-(4-methoxybenzenesulfonyl)-3-{2-oxo-1-phenyl-2-[(R)-3-(4-propylpiperazin-1-yl)pyrrolidin-1-yl]ethyl}-1,3-dihydrobenzimidazol-2-one] | < 100
12 | CCCN1CCN([C@H]2CCN(C(=O)C(c3ccccc3)n3c(=O)n(S(=O)(=O)c4ccc(OC)cc4)c4ccc(Cl)cc43)C2)CC1 (stereo partly drawn) [Example 158, 5-Chloro-1-(4-methoxybenzenesulfonyl)-3-{2-oxo-1-phenyl-2-[(S)-3-(4-propylpiperazin-1-yl)pyrrolidin-1-yl]ethyl}-1,3-dihydrobenzimidazol-2-one] | < 100
13 | COc1ccc(S(=O)(=O)n2c(=O)n(C(C(=O)N3CC[C@@H](N4CCN(C)CC4)C3)c3ccccc3)c3cc(Cl)ccc32)cc1 (stereo partly drawn) [Example 159, 5-Chloro-1-(4-methoxybenzenesulfonyl)-3-{2-[(R)-3-(4-methylpiperazin-1-yl)pyrrolidin-1-yl]-2-oxo-1-phenylethyl}-1,3-dihydrobenzimidazol-2-one] | < 100
14 | COc1ccc(S(=O)(=O)n2c(=O)n(C(C(=O)N3CC[C@H](N4CCN(C)CC4)C3)c3ccccc3)c3cc(C#N)ccc32)cc1 (stereo partly drawn) [Example 160, 1-(4-Methoxybenzenesulfonyl)-3-{2-[(S)-3-(4-methylpiperazin-1-yl)-pyrrolidin-1-yl]-2-oxo-1-phenylethyl}-2-oxo-2,3-dihydro-1H-benzimidazole-5-carbonitrile] | < 100
15 | CCCN1CCN([C@H]2CCN(C(=O)C(c3ccccc3)n3c(=O)n(S(=O)(=O)c4ccc(OC)cc4)c4ccc(C#N)cc43)C2)CC1 (stereo partly drawn) [Example 161, 1-(4-Methoxybenzenesulfonyl)-2-oxo-3-{2-oxo-1-phenyl-2-[(S)-3-(4-propylpiperazin-1-yl)pyrrolidin-1-yl]ethyl}-2,3-dihydro-1H-benzimidazole-5-carbonitrile] | < 100
16 | COc1ccc(S(=O)(=O)n2c(=O)n(C(C(=O)N3CC[C@@H](N4CCN(C)CC4)C3)c3ccccc3)c3cc(C#N)ccc32)cc1 (stereo partly drawn) [Example 162, 1-(4-Methoxybenzenesulfonyl)-3-{2-[(R)-3-(4-methylpiperazin-1-yl)-pyrrolidin-1-yl]-2-oxo-1-phenylethyl}-2-oxo-2,3-dihydro-1H-benzimidazole-5-carbonitrile] | 100 to 500
17 | CCCN1CCN([C@@H]2CCN(C(=O)C(c3ccccc3)n3c(=O)n(S(=O)(=O)c4ccc(OC)cc4)c4ccc(C#N)cc43)C2)CC1 (stereo partly drawn) [Example 163, 1-(4-Methoxybenzenesulfonyl)-2-oxo-3-{2-oxo-1-phenyl-2-[(R)-3-(4-propylpiperazin-1-yl)pyrrolidin-1-yl]ethyl}-2,3-dihydro-1H-benzimidazole-5-carbonitrile] | 100 to 500
18 | COc1ccc(S(=O)(=O)n2c(=O)n(C(C(=O)N3CCN(C4CCCNC4)CC3)c3ccccc3)c3cc(Cl)ccc32)cc1 (stereo not drawn) [Example 165, 5-Chloro-1-(4-methoxybenzenesulfonyl)-3-[2-oxo-1-phenyl-2-(4-piperidin-3-ylpiperazin-1-yl)ethyl]-1,3-dihydrobenzimidazol-2-one] | 500 to 10000
19 | COc1ccc(S(=O)(=O)n2c(=O)n(C(C(=O)N3CCC(N)C3)c3ccccc3)c3cc(Cl)ccc32)cc1 (stereo not drawn) [Example 166, 3-[2-(3-Aminopyrrolidin-1-yl)-2-oxo-1-phenylethyl]-5-chloro-1-(4-methoxybenzenesulfonyl)-1,3-dihydrobenzimidazol-2-one] | 100 to 500
20 | COc1ccc(S(=O)(=O)n2c(=O)n(C(C(=O)N3CCCC(N)C3)c3ccccc3)c3cc(Cl)ccc32)cc1 (stereo not drawn) [Example 167, 3-[2-(3-Aminopiperidin-1-yl)-2-oxo-1-phenylethyl]-5-chloro-1-(4-methoxybenzenesulfonyl)-1,3-dihydrobenzimidazol-2-one] | < 100
21 | COc1ccc(S(=O)(=O)n2c(=O)n(C(C(=O)N3CC[C@H](N)C3)c3ccccc3)c3cc(Cl)ccc32)cc1 (stereo partly drawn) [Example 168, 3-[2-((S)-3-Aminopyrrolidin-1-yl)-2-oxo-1-phenylethyl]-5-chloro-1-(4-methoxybenzenesulfonyl)-1,3-dihydrobenzimidazol-2-one] | 100 to 500
22 | COc1ccc(S(=O)(=O)n2c(=O)n(C(C(=O)N3CC[C@@H](N)C3)c3ccccc3)c3cc(Cl)ccc32)cc1 (stereo partly drawn) [Example 169, 3-[2-((R)-3-Aminopyrrolidin-1-yl)-2-oxo-1-phenylethyl]-5-chloro-1-(4-methoxybenzenesulfonyl)-1,3-dihydrobenzimidazol-2-one] | 500 to 10000
23 | COc1ccc(S(=O)(=O)n2c(=O)n(C(C(=O)N3CCCC(N)C3)c3ccccc3)c3cc(C#N)ccc32)cc1 (stereo not drawn) [Example 170, 3-[2-(3-Aminopiperidin-1-yl)-2-oxo-1-phenylethyl]-1-(4-methoxybenzenesulfonyl)-2-oxo-2,3-dihydro-1H-benzimidazole-5-carbonitrile] | 500 to 10000
24 | COc1ccc(S(=O)(=O)n2c(=O)n(C(C(=O)N3CC[C@H](N)C3)c3ccccc3)c3cc(C#N)ccc32)cc1 (stereo partly drawn) [Example 171, 3-[2-((S)-3-Aminopyrrolidin-1-yl)-2-oxo-1-phenylethyl]-1-(4-methoxybenzenesulfonyl)-2-oxo-2,3-dihydro-1H-benzimidazole-5-carbonitrile] | 500 to 10000
